Data set [1] relates to human colon carcinoma SW620. In words: Antitumor effect with temozolomide on SW620 transplanted tumors in nude mice. Format: in vivo. The settings on record: colon carcinoma SW620 in BALB/cA-nude mice; 10 mg/kg oral gavage + TMZ 50 mg/kg oral gavage; day 52. As for the experimental part: The therapeutic effect of the compounds of the present invention administered in combination with temozolomide (TMZ) on transplanted tumors of human colon carcinoma SW620 or human breast cancer cells MX-1 in nude mice was evaluated by using BALB/cA-nude mice as test animals.
BALB/cA-nude mice, SPF, 16-20 g, female( ), were purchased from SINO-BRITSH SIPPR/BK LAB. ANIMAL LTD., CO. Certificate No.: SCXK(Shanghai) 2008-0016.
4.2 The right rib of the nude mice was subcutaneously inoculated with colon carcinoma cells SW620. After tumors grew to 339±132 mm^3, mice were randomly divided into teams (d0).
The volume of tumors and the weight of the mice were measured and recorded for 2 to 3 times per week.
The volume of tumor (V) was calculated by the follow equation: V=½×a×b^2 wherein: a, b represents length and width respectively. The antitumor rate(%)=(C−T)/C(%) wherein: T, C represents the tumor volume of the experimental group (tested compounds) and blank control group at the end of the experiment respectively. 5. Dosage, Dosage Regimens and the Results

Data set [2] has as its system human breast cancer cells MX-1. In words: Antitumor effect with temozolomide on MX-1 transplanted tumors in nude mice. The settings on record: breast cancer MX-1 in BALB/cA-nude mice, day 8. The format is in vivo. Here is the method:
The therapeutic effect of the compounds of the present invention administered in combination with temozolomide (TMZ) on transplanted tumors of human colon carcinoma SW620 or human breast cancer cells MX-1 in nude mice was evaluated by using BALB/cA-nude mice as test animals. BALB/cA-nude mice, SPF, 16-20 g, female( ), were purchased from SINO-BRITSH SIPPR/BK LAB. ANIMAL LTD., CO. Certificate No.: SCXK(Shanghai) 2008-0016. Nude mice were subcutaneously inoculated with human breast cancer cells MX-1. After tumors grew to 100 to 200 mm^3, mice were randomly divided into teams (d0). The volume of tumors and the weight of the mice were measured and recorded for 2 to 3 times per week. The volume of tumor (V) was calculated by the follow equation: V=½×a×b^2 wherein: a, b represents length and width respectively. The antitumor rate(%)=(C−T)/C(%) wherein: T, C represents the tumor volume of the experimental group (tested compounds) and blank control group at the end of the experiment respectively. 5. Dosage, Dosage Regimens and the Results

In a further data set the test system is MDA-MB-436 cells. The data set can be described thus: Cell proliferation inhibition assay (CCK8). The format is cell-based. The settings on record: Homo sapiens, 72 hours.
Data set [3] in a line: Pharmacokinetics assay in SD rats (LC/MS/MS plasma concentration). The settings on record: oral gavage, 15 mg/kg. Format: in vivo. As for the experimental part:
The pharmacokinetic behavior of the compounds of the present invention was studied and evaluated in rats.
24 Healthy adult SD rats, male and female in half, were purchased from SINO-BRITSH SIPPR/BK LAB. ANIMAL LTD., CO, Certificate No.: SCXK (Shanghai) 2003-0002.
The intragastrical administration group: the right amount of tested compounds were weighed and dissolved in 0.5 mL of DMSO, diluted with physiological saline to 10 mL and prepared to 1.5 mg/mL.
The intravenous injection administration group: the right amount of tested compounds were weighed and added into […].
After an overnight fast, 24 healthy adult SD rats, male and female in half, were administered intragastrically at a dose of 15.0 mg/kg and an administration volume of 10 mL/kg.
The intragastrical administration group: blood samples (0.2 mL) were taken from orbital sinus at pre administration and at 0.25 hour, 0.5 hour, 1.0 hour, 1.5 hours, 2.0 hours, 3.0 hours, 4.0 hours, 6.0 hours, 7.0 hours, 9.0 hours, 12.0 hours and 24.0 hours post administration, stored in heparinized tubes and centrifuged for 20 minutes at 3,500 rpm to separate plasma. The plasma samples were stored at −20° C. The rats were fed at 2 hours after administration.
The intravenous injection administration group: blood samples (0.2 mL) were taken from orbital sinus at pre administration and at 2 minutes, 15 minutes, 0.5 hour, 1.0 hour, 2.0 hours, 3.0 hours, 4.0 hours, 6.0 hours, 8.0 hours, 12.0 hours and 24.0 hours post administration, stored in heparinized tubes and centrifuged for 20 minutes at 3,500 rpm to separate plasma. The plasma samples were stored at −20° C.
20 μL of rat blank plasmas taken at various time points after administration were added with 50 μL of internal standard solution and 140 μL of methanol and mixed for 3 minutes by a vortexer. The mixture was centrifuged for 10 minutes at 13,500 rpm. 20 μL of the supernatant was analyzed by LC-MS/MS. The main pharmacokinetic parameters were calculated by software DAS 2.0.

Molecules are shown by their SMILES.

For orientation: IC50 means the concentration that inhibits the measured activity by half. As a reminder, the AUC is concentration integrated over time. In general, MRT refers to the average time that molecules of a dose stay in the body. What is called Cmax is the highest concentration seen after dosing. Consider `O=C(c1cc(Cc2n[nH]c(=O)c3ccccc23)ccc1F)N1CCn2nc(C(F)(F)F)nc2C1` [Example 19, 4-[[4-fluoro-3-[2-(trifluoromethyl)-6,8-dihydro-5H-[1,2,4]triazolo[1,5-a]pyrazine-7-carbonyl]phenyl]methyl]-2H-phthalazin-1-one], for which the “antitumor rate (%)” value was “++ (“++”: 60%~80%)” in data set [1], “+++ (“+++”: 80%~100%)” in data set [2] (1 mg/kg oral gavage + TMZ 50 mg/kg oral gavage), “+++ (“+++”: 80%~100%)” in data set [2] (3 mg/kg oral gavage + TMZ 50 mg/kg oral gavage) and “+++ (“+++”: 80%~100%)” in data set [2] (10 mg/kg oral gavage + TMZ 50 mg/kg oral gavage). Moreover, the IC50 in the data set on MDA-MB-436 cells came out at 49 nM. Also, the AUC in data set [3] (both sexes, rat, plasma, read-out: Area Under Curve AUC) was determined as 12600 ± 12400 ng·h/mL. Besides, the half-life in data set [3] (both sexes, rat, plasma, read-out: Half-Life t1/2 (converted)) was 9.79 ± 4.82 h. The MRT in data set [3] (both sexes, rat, plasma, read-out: Mean Residence Time MRT) was found to be 3.5 ± 1.46 h. In addition, the Cmax in data set [3] (both sexes, rat, plasma, read-out: Plasma Conc. Cmax) was determined as 2340 ± 1650 ng/mL. In addition, in data set [3], the “Apparent Distribution Volume Vz/F” value is 7.97 ± 5.38 kg⁻¹. Moreover, in data set [3], the “Clearance CL/F” value was 3.45 ± 3.21 1/11/kg.

The values are drawn from patent publication US9273052B2, “Phthalazinone ketone derivative, preparation method thereof, and pharmaceutical use thereof” (Jiangsu Hansoh Pharmaceutical Co., Ltd., priority 2010, dated 2016).
